Counter-ions that a name gives are not always drawn.
Assays:
Format in all cases: in vivo, human
[1] = system: blind mute and deaf children; test: galanthamine hydrobromide injections in blind mute and deaf children; conditions: one of 3 patients, 7-9 years old; 0.1 ml of 0.5% solution per year of life, 15-20 injections
Method: 25 years ago, applicant conducted a study of a small group of blind mute and deaf children (3 patients) at the age of 7-9 years old. There was an attempt to restore their visual function using galanthamine hydrobromide solution at the dosage of 0.1 ml of 0.5% of galanthamine hydrobromide for each year of life. The course of treatment included 15-20 injections. […] This finding gave an impetus to conduct additional research into the restoration of auditory function using acetylholinesterase inhibitors in conjunction with laser stimulation.

[2] = system: sensorineural hearing loss of vascular genesis; test: Treatment for sensorineural hearing loss of vascular genesis
Method: A group of 24 patients at the age of 50-65 were treated for sensorineural hearing loss. […] After a 7-10 days break, the course was repeated. […] The hearing in one ear improved by 5-10 dB.
So the second intake of the drug at night was withdrawn. […] After that, they refused to continue the treatment for the lack of desired effect.
Three courses of treatment were conducted. […] Then, the patients terminated the treatment because of its high cost.

[3] = system: sensorineural hearing loss caused by hyperbilirubinemia; test: Treatment for sensorineural hearing loss caused by hyperbilirubinemia
Method: Research was conducted on four patients (age 2 to 5 years) who had hyperbilirubinemia soon after birth. The hearing impairment was diagnosed when the children were examined and treated for hyperkinetic cerebral palsy. The children were not able to walk.
After the treatment, their hearing improved by 10-15 dB.

[4] = system: sensorineural hearing loss caused by Usher syndrome; test: Treatment for sensorineural hearing loss caused by Usher syndrome
Method: A group of 4 children of 5-6 years old with Usher's syndrome were studied. They manifested profound hearing impairment of 65-75 dB alongside progressive loss of vision due to retinitis pigmentosa. These children had been previously refused treatment on the account of their disease being genetic.
In 1.5 months there was an improvement in hearing by 5 dB. […] The third course was conducted in three months according to the same pattern. After that the hearing improved by 10-15 dB.
PIRIBEDIL® is a vasodilative drug used for treating vision and hearing disorders. Applicant observed that the hearing was improved by 5-10 dB. The patients were recommended to have a follow up treatment every 6 months according to the same pattern.

minimal hearing loss = test: Treatment for minimal hearing loss
Source text: A group of patients consisting of 56 children was selected. 29 children—4 years of age and 27 children—5-6 years of age.
Minimal hearing disorders were discovered when these children were investigated for speech development delay.
The course of treatment was repeated in three months. Depending on the degree of the impairment and its cause, the patients received from 3 to 8 courses of treatment.

[5] = system: sensorineural hearing loss caused by birth injury; test: Treatment for sensorineural hearing loss caused by birth injury
Method: Research was conducted with 4 patients whose hearing loss was caused by birth injury. Two patients were twin boys […] and two patients […].
The twins had sensorineural hearing loss in both ears. […] The course was repeated in 1.5 months, and the third course was conducted in 3 months.
Treatment was then conducted according to the following pattern.
The courses were repeated every three months for three years. They received 8 and 10 courses respectively.

[6] = system: hearing loss caused by toxoplasmosis; test: Treatment for neuropathy of CN VIII: hearing loss caused by toxoplasmosis; conditions: patient
Method: This research involved observation of neuropathy in the vestibulocochlear nerve of 17 patients.
In two patients, the hearing loss was caused by toxoplasmosis. In one patient, inborn toxoplasmosis was diagnosed. The other patient developed toxoplasmosis from an infected cat.
The second course was conducted in three months. After four courses of treatment, their hearing improved by 25 dB.
After 5 courses of treatment, their hearing improved by 30 dB.

[7] = system: neurinomas of cerebellopontine angle; test: Treatment for neurinomas of cerebellopontine angle
Source text: Neurinomas of the cerebropontine angle—7 patients (2 patients and 5 people from 35 to 45 years of age).
In all 7 patients, the tumor was diagnosed late and was of a considerable size. In spite of the fact that all of them had consulted doctors, they were correctly diagnosed only after the appearance of the symptoms of damage to the facial nerve, ataxy, and complete hearing loss. Some of the patients underwent neurosurgery, including partial removal of the tumor followed by chemo- and radio-therapy. The patients manifested paralysis of the facial nerve, optic atrophy, and tinnitus, dizziness and paresis or hemisyndrom of different degrees.
After the operations, some of the patients had severe complications. […] Disorders of differentiation of words, especially in noisy environments. Some patients manifested convulsions and severe headaches. The encephalogram registered readiness for convulsions. Such patients initially underwent anticonvulsant therapy with CARBAMAZEPINE® 100 mg two times a day.
The course of treatment was repeated every 3-6 months. […] The patients started to differentiate shapes of objects, which helped them to orient in the surroundings and to come to the clinic without a guide.

meningiomas = test: Treatment of patients with meningiomas; conditions: 1.25 mg once a day, three courses
Method: Applicant observed two patients with meningiomas. Their tumors were of a considerable size. These patients had undergone surgery, which was conducted in two stages, and was followed by chemo- and radiation therapy. These patients were practically blind, and had bilateral optic atrophy, their hearing function was impaired by 30-40 dB, they were not able to differentiate words in noisy environments. They also manifested convulsive attacks up to 15 times a day. They went through the anticonvulsant therapy, after which their convulsions occurred only for 2 times a month. […] In a month and a half, the treatment was conducted according to the following pattern. 1.25 mg once a day for 7 days, followed by a 5 day break. […] This course was repeated in 3 months. The third course was conducted in 6 months. […] These improvements satisfied the patients and no further treatment was conducted.

[8] = 18 patients, 2.5 mg a day with vasodilating treatment, three courses
[9] = after three courses, 0.625 mg once a day during 25 days
[10] = twin boys, three courses, 2.5 mg twice a day for 20 days
[11] = 7 patients, courses repeated every 3-6 months

`COc1ccc2c3c1O[C@H]1C[C@@H](O)C=C[C@@]31CCN(C)C2` [galanthamine hydrobromide] was tested, and the auditory function [1] was “minor improvement of auditory function”.

`COc1cc2c(cc1OC)C(=O)C(CC1CCN(Cc3ccccc3)CC1)C2` (stereo not drawn) [ARICEPT®, donepezil hydrochloride] was tested, and the hearing ([2]; 6 patients, night intake withdrawn, after the fourth course) was “slight improvement of hearing”, the side effects ([2]; 6 patients, 2.5 mg twice a day) was “irritability and sleep disturbances” and the tinnitus ([2]; 18 of 24 patients 50-65 years, after the first course, 2.5 mg twice a day during 25 days) was “decrease of tinnitus”. For the same compound, the dizziness [2, 8] was “decrease of dizziness”, the hearing [2, 8] was “improved hearing in one ear” and the “hearing in one ear improved by” value ([2]; after the first course, 2.5 mg twice a day during 25 days) was 5-10 dB. The concentration [3, 9] was “concentration improved”, the hyperkinesias [3, 9] was “some decrease of hyperkinesias” and the hearing ([3]; four patients 2-5 years, after three courses, 0.625 mg once a day during 25 days) was “no improvement in hearing”. For the same compound, the hyperkinesia and walking ([3]; patient with profound hearing loss, after ten courses) was “Hyperkinesia decreased and the patient began to walk”, the hearing threshold ([3]; patient, threshold over 95 dB before, after ten courses) was 90 dB and the “hearing improved by” value ([3]; two children, 10 courses, 0.625 mg twice a day for 25 days, three months break) was 10-15 dB. The improvement in hearing ([4]; 4 children 5-6 years, loss 65-75 dB, 1.25 mg 2 times a day for 20 days, in 1.5 months) was 5 dB, the visual function ([4]; after the third course) was “improved visual function” and the “hearing improved by” value ([4]; after the third course, 1.25 mg two times a day) was 10-15 dB. For the same compound, the “hearing improved by” value ([4]; two patients, after six months, with PIRIBEDIL 5 mg two times a day) was 5-10 dB, the higher psychic functions (minimal hearing loss; 56 children 4-6 years) was “improvement of higher psychic functions” and the “most noticeable improvement of phonemic hearing and speech functions observed” value (minimal hearing loss; 56 children 4-6 years, 1.25 mg once a day during 20 days) was “between the 3d and the 5th courses”. The “hearing improved by” value (minimal hearing loss; children with sensorineural hearing loss, 1.25 mg once a day during 20 days, 3 to 8 courses) was 5-10 dB, the “children who manifested the increase in the intellect” value (minimal hearing loss; starting from the 4th course, preliminary results) was 85% and the “hearing improved by, in one ear” value ([5]; each twin, further three courses 2.5 mg twice a day for 25 days, with PERIBEDIL 10 mg twice a day from the 4th course) was 20-25 dB. For the same compound, the “hearing improved by” value ([5]; person, sensorineural hearing loss of 65 dB, 2.5 mg once a day for twenty days, 10 courses over three years) was 10 dB, the “hearing improved by, in one ear” value ([5]; twin boys of 10 years, three courses, 2.5 mg twice a day for 20 days, hydrochloride) was 10 dB and the fatiguability [5, 10] was “decreased fatiguability”. For the same compound, the speech [5, 10] was “speech became more understandable”, the “hearing improved by” value ([6]; 0.625 mg once a day during 20 days, after four courses) was 25 dB and the “hearing improved by” value ([6]; 2.5 mg once a day for 20 days, after 5 courses) was 30 dB. The tinnitus [7, 11] was “decrease of tinnitus”, the visual function [7, 11] was “improvement in their visual function” and the “effect of further courses” value ([7]; after 5-6 courses of treatment) was “no further improvement”. For the same compound, the side effects ([7]; dosage increased to 5 mg twice a day, with anticonvulsant therapy) was “headaches and sleep disturbances”, the side effects ([7]; dosage of 2.5 mg a day) was “didn't produce side effects” and the hearing (meningiomas; 2 patients, hearing impaired by 30-40 dB) was “improvement of hearing”. For the same compound, the speech (meningiomas; 2 patients, with anticonvulsant therapy) was “increased legibility of speech” and the vision (meningiomas; 2 practically blind patients) was “clear differentiation of the source of light”.

Source: patent publication US8012994B1 (priority 2006, dated 2011)
